Results as given in PMC6656724 (Communications Biology, 2019).
In brackets after ≈: the same amount, converted by molar mass. Read-outs that look alike come from different tables or passages of the source.

Columns and labels:
[1] = Mouse brain penetration study; assay type: in vivo, female C57BL6 mice; details: mouse, 1 mg/kg i.v.; for In blood / In brain: single mice, analyte inhibitor 1 (also after prodrugs) or 1h
Procedure: Inhibitor 1 (and prodrugs 1a, 1b, 1c and 1d) was dosed as a bolus solution intravenously at 1 mg free base/kg (dose volume: 5 mL/kg; dose vehicle: 5% DMSO; 95% saline (inhibitor 1) or 5% DMSO; 40% PEG400; 55% MilliQ H2O (prodrugs 1a, 1b, 1c and 1d)) to female C57BL6 mice (n = 6). At 5 min and 60 min following intravenous bolus injection of test compound, mice (n = 3/timepoint) were placed under terminal anaesthesia with isofluorane. A blood sample was taken by cardiac puncture, the […] decapitated and the brain removed. Brain weight was noted and each brain homogenised with two volumes of methanol (2 mL/g brain). Each blood sample was diluted with distilled water (1:10). Diluted blood and the brain homogenates were then stored frozen until preparation and analysis by UPLC-MS/MS. For each mouse at each timepoint for 1, the concentration in brain (ng/g) was divided by the concentration in blood (ng/mL) to give a brain:blood ratio. The mean value obtained was quoted. For prodrugs 1a to 1d, only the concentration of 1 in blood (ng/mL) and brain (ng/g) was reported.
A rapid and sensitive ultra-performance chromatography/tandem mass spectrometry (UPLC-MS/MS) method was developed and validated for the determination of inhibitor 1 and prodrug 1b (rat only). Chromatographic analysis was conducted on a Waters Acquity™ UPLC system. Chromatographic separation was performed with an Acquity™ UPLC BEH C18 column (50 × 2.1 mm, 1.7 µm, 130Å; Waters Corp.) maintained at 40 °C in a column oven. The mobile phase consisted of water with 0.01% formic acid and ACN with 0.01 % formic acid and it was delivered at a flow rate of 0.6 mL/min under gradient eluent conditions within an analysis cycle time of 3 min. The mass detection was conducted on a Waters Xevo™ TQs mass spectrometer equipped with a ScanWave™ technology. Quantitation of the analyte was performed in electrospray positive ionisation mode (ESI^+) using multiple reaction monitoring. The optimised fragmentation transition was m/z = 270.17 → 196.19 (mouse) or m/z = 270.17 → 223.76 (rat) for inhibitor 1 and m/z = 297.83 → 195.74 for prodrug 1b (rat).
Sample extraction for blood and brain homogenate was by protein precipitation (1:3 or 1:6) using ACN containing suitable internal standard. Extracts were vortexed followed by centrifugation (2800 rpm for 10 min). An aliquot of each supernatant was then diluted two-fold in distilled water ready for analysis by UPLC-MS/MS.
The weighted 1/x^2 calibration line was linear in the dynamic range of 1–5000 ng/mL for inhibitor 1 and 1–1000 ng/mL for prodrug 1b with a correlation coefficient (r^2) > 0.99 (inhibitor 1) or 0.98 (prodrug 1b). The quality control samples (QC) were prepared by using the same spiking scheme as the calibration samples and up to four different target concentration brain levels: 2 ng/mL (LQC), 40 ng/mL (MQC), 100 ng/mL (HQC) and 2000 ng/mL. Data collection, peak integration and calculations were performed using MassLynx software, version 2.1.

[2] = Kinetic solubility in PBS, pH 7.4 (2% DMSO); assay type: physicochemical; details: PBS with 2% DMSO, pH 7.4, aqueous buffer, kinetic from dmso stock, PBS, pH 7.4 (2% DMSO)
[3] = in vitro; assay type: in vitro ADME, canine; details: dog; for Papp A→B at 1 h, 10 µM / Papp B→A at 1 h, 10 µM / recovery at 1 h, 10 µM: MDCK; for efflux ratio at 1 h, 10 µM: pH 7.4, wild type MDCK, Papp B>A / Papp A>B
Procedure: (§1) internal standard at each timepoint. […]
(§2) including an analytical internal standard.
(§3) Apparent permeability (Papp) values were determined from the relationship: […]
(§4) Where V is the volume of each Transwell compartment (apical 125 µL, basolateral 600 µL), and concentrations are the relative MS responses for compound (normalized to internal standard) in the donor chamber before incubation and acceptor chamber at the end of the incubation. Area = area of cells exposed for drug transfer (0.33 cm 2).
(§5) Efflux ratios (Papp B>A / Papp A>B) were calculated for each compound from the […]
(§6) MDR1-MDCK cell line has been engineered to overexpress the efflux transporter, MDR1 (P-glycoprotein), and a finding of good permeability B>A, but poor […]
(§7) order to confirm the involvement of MDR1 in any efflux seen, an “ef fective efflux ratio” (EER) was calculated by comparing compound efflux ratios (ER) in the two cell types, i.e. EER = ER (MDR1-MDCK)/ ER (wild-type MDCK). This ratio illustrates the effect of the over-expressed MDR1 normalised for the background movement of compound through the wild-type cells.
(§8) Lucifer Yellow (LY) was added to the apical buffer in all wells to assess viability of the cell layer. As LY cannot freely permeate lipophilic barriers, a high degree of LY […]
(§9) validity of other wells on the plate.
(§10) Compound recovery from the wells was determined from MS responses (normalized to internal standard) in donor and acceptor chambers at the end of incubation compared to response in the donor chamber pre-incubation.

[4] = system: MDR1 (P-glycoprotein); test: in vitro; assay type: in vitro ADME, canine; details: dog; for efflux ratio at 1 h, 10 µM: pH 7.4, MDR1 MDCK, Papp B>A / Papp A>B
Procedure: as §1, §2, §3, §4, §5, §6, §7, §8, §9, §10

[5] = pH 7.4, Papp A>B n=1, wild type MDCK
[6] = pH 7.4, Papp A>B n=2, wild type MDCK
[7] = pH 7.4, Papp B>A n=1, wild type MDCK
[8] = pH 7.4, Papp B>A n=2, wild type MDCK
[9] = pH 7.4, wild type MDCK, read-out: Papp A>B Mean
[10] = pH 7.4, wild type MDCK, read-out: Papp B>A Mean
[11] = pH 7.4, wild type MDCK, read-out: Recovery A>B Mean
[12] = pH 7.4, wild type MDCK, read-out: Recovery A>B n=1
[13] = pH 7.4, wild type MDCK, read-out: Recovery A>B n=2
[14] = pH 7.4, wild type MDCK, read-out: Recovery B>A Mean
[15] = pH 7.4, wild type MDCK, read-out: Recovery B>A n=1
[16] = pH 7.4, wild type MDCK, read-out: Recovery B>A n=2
[17] = MDCK-MDR1, pH 7.4, MDR1 MDCK, read-out: Papp A>B Mean
[18] = MDCK-MDR1, pH 7.4, MDR1 MDCK, read-out: Papp B>A Mean
[19] = MDCK-MDR1, pH 7.4, MDR1 MDCK, read-out: Recovery A>B Mean
[20] = MDCK-MDR1, pH 7.4, MDR1 MDCK, read-out: Recovery A>B n=1
[21] = MDCK-MDR1, pH 7.4, MDR1 MDCK, read-out: Recovery A>B n=2
[22] = MDCK-MDR1, pH 7.4, MDR1 MDCK, read-out: Recovery B>A Mean
[23] = MDCK-MDR1, pH 7.4, MDR1 MDCK, read-out: Recovery B>A n=1
[24] = MDCK-MDR1, pH 7.4, MDR1 MDCK, read-out: Recovery B>A n=2
[25] = MDCK-MDR1, pH 7.4, Papp A>B n=1, MDR1 MDCK
[26] = MDCK-MDR1, pH 7.4, Papp A>B n=2, MDR1 MDCK
[27] = MDCK-MDR1, pH 7.4, Papp B>A n=1, MDR1 MDCK
[28] = MDCK-MDR1, pH 7.4, Papp B>A n=2, MDR1 MDCK

| Structure (SMILES) | solubility at 2 h ([2]; read-out: Solubility Mean) | solubility at 2 h ([2]; read-out: Solubility n=1) | solubility at 2 h ([2]; read-out: Solubility n=2) | Papp A→B at 1 h, 10 µM [3, 5] | Papp A→B at 1 h, 10 µM [3, 6] | Papp B→A at 1 h, 10 µM [3, 7] | Papp B→A at 1 h, 10 µM [3, 8] | Papp A→B at 1 h, 10 µM [3, 9] | Papp B→A at 1 h, 10 µM [3, 10] | recovery at 1 h, 10 µM [3, 11] | recovery at 1 h, 10 µM [3, 12] | recovery at 1 h, 10 µM [3, 13] | recovery at 1 h, 10 µM [3, 14] | recovery at 1 h, 10 µM [3, 15] | recovery at 1 h, 10 µM [3, 16] | efflux ratio at 1 h, 10 µM [3] | Papp A→B at 1 h, 10 µM [4, 17] | Papp B→A at 1 h, 10 µM [4, 18] | recovery at 1 h, 10 µM [4, 19] | recovery at 1 h, 10 µM [4, 20] | also measured |
| --- | --- | --- | --- | --- | --- | --- | --- | --- | --- | --- | --- | --- | --- | --- | --- | --- | --- | --- | --- | --- | --- |
| COC(=O)CN1C(=O)COc2cc(C)c(Cl)c(C)c21 [1a] |  |  |  |  |  |  |  |  |  |  |  |  |  |  |  |  |  |  |  |  | In blood ([1]; 5 min, listed as prodrug 1a, 1 mg/kg): ≤ LLoQ |
| CC(CSc1ccc(Cl)cc1)C(=O)O (stereo not drawn) [compound 6, 3-[(4-chlorophenyl)thio]-2-methylpropanoic acid] | 187 µM (≈ 43.1 µg/mL) | 186 µM (≈ 42.9 µg/mL) | 188 µM (≈ 43.4 µg/mL) | 33 ×10⁻⁶ cm/s | 41 ×10⁻⁶ cm/s | 51 ×10⁻⁶ cm/s | 50 ×10⁻⁶ cm/s | 37 ×10⁻⁶ cm/s | 50.5 ×10⁻⁶ cm/s | 66% | 57% | 75% | 93.5% | 98% | 89% | 1.36 | 50.5 ×10⁻⁶ cm/s | 41.5 ×10⁻⁶ cm/s | 82% | 68% | recovery at 1 h, 10 µM [4, 21]: 96%; recovery at 1 h, 10 µM [4, 22]: 80%; recovery at 1 h, 10 µM [4, 23]: 93%; recovery at 1 h, 10 µM [4, 24]: 67%; Papp A→B at 1 h, 10 µM [4, 25]: 40 ×10⁻⁶ cm/s; Papp A→B at 1 h, 10 µM [4, 26]: 61 ×10⁻⁶ cm/s; Papp B→A at 1 h, 10 µM [4, 27]: 51 ×10⁻⁶ cm/s; Papp B→A at 1 h, 10 µM [4, 28]: 32 ×10⁻⁶ cm/s; efflux ratio at 1 h, 10 µM [4]: 0.81 |
| Cc1cc2c(c(C)c1Cl)N(CC(=O)OC(C)C)C(=O)CO2 [1c] |  |  |  |  |  |  |  |  |  |  |  |  |  |  |  |  |  |  |  |  | In brain ([1]; 60 min): ≤ LLoQ |
| Cc1cc2c(c(C)c1Cl)N(Cc1nn[nH]n1)C(=O)CO2 [1h, 6-chloro-5,7-dimethyl-4-(2H-tetrazol-5-ylmethyl)-1,4-benzoxazin-3-one] |  |  |  |  |  |  |  |  |  |  |  |  |  |  |  |  |  |  |  |  | Blood levels lower than those observed for 1 [1]: ~ 50%; Brain penetrance (in words) [1]: very limited brain penetrance; In blood ([1]; 60 min): ≤ LLoQ; In brain ([1]; 60 min): ≤ LLoQ |
| Cn1c(C(=O)N[C@@H](C(=O)O)c2ccccc2)cc2cc(F)ccc21 [compound 5, (R)-2-(5-fluoro-1-methyl-1H-indole-2-carboxamido)-2-phenylacetic acid] | 185 µM (≈ 60.4 µg/mL) | 186 µM (≈ 60.7 µg/mL) | 183 µM (≈ 59.7 µg/mL) | 2.6 ×10⁻⁶ cm/s | 2.1 ×10⁻⁶ cm/s | 1.6 ×10⁻⁶ cm/s | 1.4 ×10⁻⁶ cm/s | 2.35 ×10⁻⁶ cm/s | 1.5 ×10⁻⁶ cm/s | 81% | 81% | 81% | 83.5% | 86% | 81% | 0.62 | 2.6 ×10⁻⁶ cm/s | 2.25 ×10⁻⁶ cm/s | 83% | 87% | recovery at 1 h, 10 µM [4, 21]: 79%; recovery at 1 h, 10 µM [4, 22]: 81.5%; recovery at 1 h, 10 µM [4, 23]: 80%; recovery at 1 h, 10 µM [4, 24]: 83%; Papp A→B at 1 h, 10 µM [4, 25]: 2.8 ×10⁻⁶ cm/s; Papp A→B at 1 h, 10 µM [4, 26]: 2.4 ×10⁻⁶ cm/s; Papp B→A at 1 h, 10 µM [4, 27]: 2.4 ×10⁻⁶ cm/s; Papp B→A at 1 h, 10 µM [4, 28]: 2.1 ×10⁻⁶ cm/s; efflux ratio at 1 h, 10 µM [4]: 0.88 |
| Oc1ccc(-c2csc3nc(-c4ccccc4)nn23)c(O)c1 [compound 3, 4-(2-phenyl[1,2,4]triazolo[5,1-b][1,3]thiazol-6-yl)benzene-1,3-diol] | 67 µM (≈ 20.7 µg/mL) | 68 µM (≈ 21 µg/mL) | 65 µM (≈ 20.1 µg/mL) | 2.7 ×10⁻⁶ cm/s | 3.9 ×10⁻⁶ cm/s | 2.7 ×10⁻⁶ cm/s | 3.2 ×10⁻⁶ cm/s | 3.3 ×10⁻⁶ cm/s | 2.95 ×10⁻⁶ cm/s | 15% | 15% | 15% | 49% | 50% | 48% | 0.89 | 3.25 ×10⁻⁶ cm/s | 4.95 ×10⁻⁶ cm/s | 18% | 15% | recovery at 1 h, 10 µM [4, 21]: 21%; recovery at 1 h, 10 µM [4, 22]: 49.5%; recovery at 1 h, 10 µM [4, 23]: 51%; recovery at 1 h, 10 µM [4, 24]: 48%; Papp A→B at 1 h, 10 µM [4, 25]: 2.9 ×10⁻⁶ cm/s; Papp A→B at 1 h, 10 µM [4, 26]: 3.6 ×10⁻⁶ cm/s; Papp B→A at 1 h, 10 µM [4, 27]: 4.9 ×10⁻⁶ cm/s; Papp B→A at 1 h, 10 µM [4, 28]: 5 ×10⁻⁶ cm/s; efflux ratio at 1 h, 10 µM [4]: 1.5 |
